Experimental data: US20150045313A1, “Ectoparasiticidal Methods and Formulations” (Eli Lilly and Company, priority 2009, published 2015)
Read-outs that look alike come from different tables or passages of the source.

Legend:
[1] = system: Boophilus annulatus; assay: Whole-body spray treatment of Boophilus annulatus infestations on cattle; assay type: in vivo
Description: C) Efficacy Testing and comparison of topically applied spinetoram with spinosad for the treatment of Boophilus annulatus infestations on cattle. Technical spinetoram and technical spinosad both formulated as 25 g/L suspension concentrate formulations similar to commercial Elector. Stability assays (HPLC and LPT bioassays) were conducted to confirm potency over extended periods of time (5 weeks) at cool and shelf-temperatures. Cattle were pre-infested 21 d prior to treatment with larval-stage B. annulatus ticks resulting the presence of very high numbers of all three life-stages of this tick at the time of treatment. Test materials were diluted to 0.025% (250 ppm) and applied to cattle as whole-body topical sprays in a volume of 10 L per animal. There were a total of six animals per treatment group (n=6). Animals were housed in covered stalls under ambient conditions of temperature and humidity. Engorged, detached adult female ticks were retrieved from animals in each stall on a daily basis. Egg masses were weighed and eggs were set for hatching to assess viability. Efficacy was measured in terms of total numbers of female ticks per animal and index of fecundity (IF).
Means were tested by General Linear Model (GLM), 1-way ANOVA. Differences (P<0.05) among means were separated using Tukey's all pairwise comparison. Means within the same column followed by different letters were significant at the P<0.05 level.
Means were tested by General Linear Model (GLM), 2-way ANOVA with parasitic life stage and treatment group as main effects. NS denotes not significant.

[2] = system: fleas (C. felis); assay: Third evaluation, speed-of-kill of topical spot-on against fleas on cats; assay type: in vivo; parameters: flea reduction 12 hours after additional infestation: concentration or dose not given beside the values
Description: Third evaluation of spinetoram as a topical spot-on for control of cat flea infestations. A study was conducted to evaluate the speed-of-kill efficacy of spinetoram applied topically for the control of fleas (C. felis) on cats. Thirty-six cats were evenly allocated into six groups. One group was a no treatment and no vehicle group. On study days −8 and −1, each cat was infested with approximately 100 newly emerged, unfed adult fleas (C. felis), with an approximate split of 50/50 male to female flea. The topical solution used was spinetoram, on a pure basis, 39.6% w/w (210 mg spinetoram/0.5 ml dose), with benzyl alcohol and butylated hydroxytoluene. The treated groups were dosed once on Study Day 0 by application at the base of the skull at skin level, and flea counts were conducted as follows: […]

[3] = system: house flies
Description: Knockdown and residual efficacy testing and comparison of spinetoram with Elector® for controlling house flies on treated panels.
Test material concentrates of spinetoram (120 g/L suspension concentrate) and spinosad (25 g/L suspension concentrate, Elector) were diluted in distilled water to the desired testing concentrations of either 0.04% (spinetoram only) or 0.08% (both) per label recommended premise spray use rate for controlling house flies with Elector. One square foot panels, obtained from commercial building suppliers, were composed of non-treated plywood, concrete and sheet metal. A second set of both plywood and concrete substrates were primed and painted using exterior grade latex white latex paint. Diluted materials were sprayed onto panels to the point of run-off (approximately 5 seconds per panel). A total of 4 panels were tested per treatment group (n=4). House flies were anesthetized using carbon dioxide and placed inside of plastic containers secured onto panels. There were 4 sub-replicates containers per panel, each container containing 10 mixed-sex adult flies (40 flies per panel). Glucose-saturated dental wicks were secured through a hole in each cup to provide a food and water source for flies. Panels remained upright throughout testing. Fly mortality and moribundity was assessed at post-exposure intervals of 4, 8, 24, 48 and 72 hours immediately following treatment applications and again on a weekly basis for 1 month.

[4] = cattle, 0.025% AI whole-body spray, mean ± SD
[5] = 4 Week Residual Activity, Sheet Metal, 400 ppm
[6] = 4 Week Residual Activity, Sheet Metal, 800 ppm
[7] = 4 Week Residual Activity, Unpainted Concrete, 400 ppm
[8] = 4 Week Residual Activity, Unpainted Concrete, 800 ppm
[9] = 4 Week Residual Activity, Unpainted Wood, 400 ppm
[10] = 4 Week Residual Activity, Unpainted Wood, 800 ppm
[11] = Initial Activity, Sheet Metal, 400 ppm
[12] = Initial Activity, Sheet Metal, 800 ppm
[13] = Initial Activity, Unpainted Concrete, 400 ppm
[14] = Initial Activity, Unpainted Concrete, 800 ppm
[15] = Initial Activity, Unpainted Wood, 400 ppm
[16] = Initial Activity, Unpainted Wood, 800 ppm

Substance: Spinetoram
- initial/knockdown activity against B. annulatus ([1]; cattle, 0.025% AI): poor
- Number ♀♀ Ticks per Calf [1, 4]: 2405 ± 306 a
- Total Index of Fecundity (IF) [1, 4]: 287 ± 35.4 a
- Percentage Control of the IF ([1]; cattle, 0.025% AI whole-body spray, therapeutic efficacy): 28.0 ± 8.9 a %
- Percentage control, Adult ([1]; parasitic life stage adult, 0.025% AI): 17.2 ± 25.0%
- Percentage control, Larval ([1]; parasitic life stage larva, 0.025% AI): 38.6 ± 10.6%
- Percentage control, Nymph ([1]; parasitic life stage nymph, 0.025% AI): 31.6 ± 20.8%
- residual efficacy, mean percentage control of the IF, Week 1 ([1]; ticks infested as larvae Week 1 after treatment): 95.3 ± 3.3%
- residual efficacy, mean percentage control of the IF, Week 2 ([1]; ticks infested as larvae Week 2 after treatment): 96.7 ± 2.3%
- residual efficacy, mean percentage control of the IF, Week 3 ([1]; ticks infested as larvae Week 3 after treatment): 89.3 ± 8.0%
- residual efficacy, mean percentage control of the IF, Week 4 ([1]; ticks infested as larvae Week 4 after treatment): 80.4 ± 11.5%
- flea reduction 1 hour after additional infestation ([2]; 28 days after treatment): 80.7%
- flea reduction 4 hours after additional infestation ([2]; 28 days after treatment): 91.6%
- flea reduction 8 hours after additional infestation ([2]; 28 days after treatment): 98.5%
- flea reduction 12 hours after additional infestation ([2]; 28 days after treatment): 100%
- flea reduction 24 hours after additional infestation ([2]; 28 days after treatment): 100%
- reduction in live flea numbers, four hours after treatment ([2]; cats, 210 mg/0.5 ml dose, 4 hours): 63.2%
- efficacy level, eight hours post-dosing ([2]; cats, 210 mg/0.5 ml dose, 8 hours): 94.6%
- efficacy, twelve hour time point ([2]; cats, 210 mg/0.5 ml dose, 12 hours): 98.6%
- efficacy, twenty-four hour time point ([2]; cats, 210 mg/0.5 ml dose, 24 hours): 100%
- flea reduction 4 hours after additional infestation ([2]; seven days after treatment): 100%
- flea reduction 8 hours after additional infestation ([2]; seven days after treatment): 100%
- flea reduction 12 hours after additional infestation ([2]; seven days after treatment): 100%
- flea reduction 24 hours after additional infestation ([2]; seven days after treatment): 100%
- fleas killed within one hour of an additional infestation ([2]; seven days after treatment, 1 hour): over 90%
- % House Fly Mortality at 4 h [3, 5]: 0%
- % House Fly Mortality at 8 h [3, 5]: 40.6%
- % House Fly Mortality at 24 h [3, 5]: 91.3%
- % House Fly Mortality at 48 h [3, 5]: 97.3%
- % House Fly Mortality at 4 h [3, 6]: 0.6%
- % House Fly Mortality at 8 h [3, 6]: 26.3%
- % House Fly Mortality at 24 h [3, 6]: 80.6%
- % House Fly Mortality at 48 h [3, 6]: 96.3%
- % House Fly Mortality at 4 h [3, 7]: 4.2%
- % House Fly Mortality at 8 h [3, 7]: 80.0%
- % House Fly Mortality at 24 h [3, 7]: 100%
- % House Fly Mortality at 48 h [3, 7]: 100%
- % House Fly Mortality at 4 h [3, 8]: 31.3%
- % House Fly Mortality at 8 h [3, 8]: 98.8%
- % House Fly Mortality at 24 h [3, 8]: 100%
- % House Fly Mortality at 48 h [3, 8]: 100%
- % House Fly Mortality at 4 h [3, 9]: 0.6%
- % House Fly Mortality at 8 h [3, 9]: 0.6%
- % House Fly Mortality at 24 h [3, 9]: 4.7%
- % House Fly Mortality at 48 h [3, 9]: 12.1%
- % House Fly Mortality at 4 h [3, 10]: 0%
- % House Fly Mortality at 8 h [3, 10]: 0%
- % House Fly Mortality at 24 h [3, 10]: 22.6%
- % House Fly Mortality at 48 h [3, 10]: 61.2%
- % House Fly Mortality at 4 h [3, 11]: 19.7%
- % House Fly Mortality at 8 h [3, 11]: 91.8%
- % House Fly Mortality at 24 h [3, 11]: 100%
- % House Fly Mortality at 48 h [3, 11]: 100%
- % House Fly Mortality at 4 h [3, 12]: 31.5%
- % House Fly Mortality at 8 h [3, 12]: 100%
- % House Fly Mortality at 24 h [3, 12]: 100%
- % House Fly Mortality at 48 h [3, 12]: 100%
- % House Fly Mortality at 4 h [3, 13]: 45.4%
- % House Fly Mortality at 8 h [3, 13]: 98.6%
- % House Fly Mortality at 24 h [3, 13]: 100%
- % House Fly Mortality at 48 h [3, 13]: 100%
- % House Fly Mortality at 4 h [3, 14]: 42.5%
- % House Fly Mortality at 8 h [3, 14]: 99.2%
- % House Fly Mortality at 24 h [3, 14]: 100%
- % House Fly Mortality at 48 h [3, 14]: 100%
- % House Fly Mortality at 4 h [3, 15]: 1.3%
- % House Fly Mortality at 8 h [3, 15]: 5.9%
- % House Fly Mortality at 24 h [3, 15]: 83.7%
- % House Fly Mortality at 48 h [3, 15]: 98.8%
- % House Fly Mortality at 4 h [3, 16]: 0.6%
- % House Fly Mortality at 8 h [3, 16]: 39.4%
- % House Fly Mortality at 24 h [3, 16]: 100%
- % House Fly Mortality at 48 h [3, 16]: 100%
- activity compared to Elector ([3]; at one half the application rate, sheet metal and unpainted concrete panels): equivalent or superior to Elector
- initial activity compared to Elector ([3]; unpainted plywood): equivalent initial activity
- residual activity compared to Elector ([3]; unpainted plywood): marginally inferior residual activity
